These results are taken from US20220274979A1 (Bayer Pharma Aktiengesellschaft, priority 2018, published 2022).

Read-outs that look alike come from different tables or passages of the source.

For test [1], the target named is T1, hK-RasG12C - hSOS1 interaction (Homo sapiens, UniProt Q07889).
T1 construct: hSOS1 (amino acid 564-1049); made in house; host or cells: E. coli BL21 (DE3)
T1 sequence (Q07889 with tags, fused parts or gaps): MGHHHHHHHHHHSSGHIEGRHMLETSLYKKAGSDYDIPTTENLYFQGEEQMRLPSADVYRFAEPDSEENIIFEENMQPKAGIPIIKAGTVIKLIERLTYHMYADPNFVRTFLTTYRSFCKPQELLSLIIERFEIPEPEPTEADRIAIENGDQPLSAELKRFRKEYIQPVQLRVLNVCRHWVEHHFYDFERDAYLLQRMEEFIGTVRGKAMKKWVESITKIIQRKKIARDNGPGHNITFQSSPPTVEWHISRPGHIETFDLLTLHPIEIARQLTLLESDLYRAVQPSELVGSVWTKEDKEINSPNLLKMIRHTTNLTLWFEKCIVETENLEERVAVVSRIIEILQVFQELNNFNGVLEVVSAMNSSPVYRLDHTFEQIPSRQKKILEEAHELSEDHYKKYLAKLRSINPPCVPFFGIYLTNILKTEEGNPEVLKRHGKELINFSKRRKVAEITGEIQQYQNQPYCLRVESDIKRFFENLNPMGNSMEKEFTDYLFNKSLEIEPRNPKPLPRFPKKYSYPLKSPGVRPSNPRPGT
Put plainly: Biochemical Assay 1: hK-RasG12C interaction assay with hSOS1 (HTRF). Type of test: binding. The following applies: for inhibition at 20 µM: read-out: Assay 1 (hKRAS, hSOS Interaction) activity (expressed as IC50, or as % inhibition at 20 μM). The procedure: Biochemical Assay 1: hK-RasG12C Interaction Assay with hSOS1
This assay quantifies the equilibrium interaction of human SOS1 (hSOS1) with human K-Ras^G12C (hK-RasG12C). Detection of the interaction is achieved by measuring homogenous time-resolved fluorescence resonance energy transfer (HTRF) from antiGST-Europium (FRET donor) bound to GST-K-RasG12C to anti-6His-XL665 bound to His-tagged hSOS1 (FRET-acceptor).
The assay buffer contained 5 mM HEPES pH 7.4 (Applichem), 150 mM NaCl (Sigma), 10 mM EDTA (Promega), 1 mM DTT (Thermofisher), 0.05% BSA Fraction V, pH 7.0, (ICN Biomedicals), 0.0025% (v/v) Igepal (Sigma) and 100 mM KF (FLUKA).
Concentrations of protein batches used were optimized to be within the linear range of the HTRF signal. A Ras working solution was prepared in assay buffer containing typically 10 nM GST-hK-RasG12C and 2 nM antiGST-Eu(K) (Cisbio, France). A SOS1 working solution was prepared in assay buffer containing typically 20 nM His-hSOS1 and 10 nM anti-6His-XL665 (Cisbio, France). An inhibitor control solution was prepared in assay buffer containing 10 nM anti-6His-XL665 without hSOS1.
Fifty nl of a 100-fold concentrated solution of the test compound in DMSO were transferred into a black microtiter test plate (384 or 1536, Greiner Bio-One, Germany) For this, either a Hummingbird liquid handler (Digilab, Mass., USA) or an Echo acoustic system (Labcyte, Calif., USA) was used.
All steps of the assay were performed at 20° C. A volume of 2.5 μl of the Ras working solution was added to all wells of the test plate using a Multidrop dispenser (Thermo Labsystems). After […] preincubation, 2.5 μl of the SOS1 working solution were added to all wells except for those wells at the side of the test plate that were subsequently filled with 2.5 μl of the inhibitor control solution. After […] incubation the fluorescence was measured with a Pherastar (BMG, Germany) using the HTRF module (excitation 337 nm, emission 1:620 nm, emission 2:665 nm).
IC50 values were calculated by 4-Parameter fitting using a commercial software package (Genedata Screener, Switzerland).
For orientation: TR-FRET usually uses a lanthanide donor and a delayed reading to cut background.

Test [2] addresses T2, Epidermal Growth Factor Receptor (EGFR) (Homo sapiens, UniProt P00533).
T2 construct: purchased Sigma-Aldrich E3641
In words: EGFR kinase assay (TR-FRET). It counts as biochemical. The following applies: 10 μM ATP; read-out: EGFR kinase inhibition IC50. The source says:
EGFR inhibitory activity of compounds of the present invention was quantified employing the TR-FRET based EGFR assay as described in the following paragraphs.
Epidermal Growth Factor Receptor (EGFR) affinity purified from human carcinoma A431 cells (Sigma-Aldrich, # E3641) was used as kinase. As substrate for the kinase reaction the biotinylated peptide biotin-Ahx-[…] (SEQ ID NO: 8, C-terminus in amid form) was used which can be purchased e.g. form the company Biosyntan GmbH (Berlin-Buch, Germany).
For the assay 50 nL of a 100 fold concentrated solution of the test compound in DMSO was pipetted into a black low volume 384 well microtiter plate (Greiner Bio-One, Frickenhausen, Germany), 2 μL of a solution of EGFR in aqueous assay buffer [50 mM Hepes/HCl pH 7.0, 1 mM MgCl2, 5 mM MnCl2, 0.5 mM activated sodium ortho-vanadate, 0.005% (v/v) Tween-20]were added and the mixture was incubated for […] at 22° C. to allow pre-binding of the test compounds to the enzyme before the start of the kinase reaction. Then the kinase reaction was started by the addition of 3 μL of a solution of adenosine-tri-phosphate (ATP, 16.7 μM=>final conc. in the 5 μL assay volume is 10 μM) and substrate (1.67 μM =>final conc. in the 5 μL assay volume is 1μM) in assay buffer and the resulting mixture was incubated for a reaction time of […] at 22° C. The concentration of EGFR was adjusted depending of the activity of the enzyme lot and was chosen appropriate to have the assay in the linear range, typical concentration were about 3 U/ml. The reaction was stopped by the addition of 5 μl of a solution of HTRF detection reagents (0.1 μM streptavidine-XL665 [Cis Biointernational]and 1 nM PT66-Tb-Cryptate, an terbium-cryptate labelled anti-phospho-tyrosine antibody from Cis Biointernational [instead of the PT66-Tb-cryptate PT66-Eu-Chelate from Perkin Elmer can also be used]) in an aqueous EDTA-solution (80 mM EDTA, 0.2% (w/v) bovine serum albumin in 50 mM HEPES pH 7.5).
The resulting mixture was incubated 1 h at 22° C. to allow the binding of the biotinylated phosphorylated peptide to the streptavidine-XL665 and the PT66-Eu-Chelate. Subsequently the amount of phosphorylated substrate was evaluated by measurement of the resonance energy transfer from the PT66-Tb-Cryptate to the streptavidine-XL665. Therefore, the fluorescence emissions at 620 nm and 665 nm after excitation at 337 nm were measured in a HTRF reader, e.g. a Pherastar (BMG Labtechnologies, Offenburg, Germany) or a Viewlux (Perkin-Elmer). The ratio of the emissions at 665 nm and at […] was taken as the measure for the amount of phosphorylated substrate.

T2 sequence (P00533 25-1210): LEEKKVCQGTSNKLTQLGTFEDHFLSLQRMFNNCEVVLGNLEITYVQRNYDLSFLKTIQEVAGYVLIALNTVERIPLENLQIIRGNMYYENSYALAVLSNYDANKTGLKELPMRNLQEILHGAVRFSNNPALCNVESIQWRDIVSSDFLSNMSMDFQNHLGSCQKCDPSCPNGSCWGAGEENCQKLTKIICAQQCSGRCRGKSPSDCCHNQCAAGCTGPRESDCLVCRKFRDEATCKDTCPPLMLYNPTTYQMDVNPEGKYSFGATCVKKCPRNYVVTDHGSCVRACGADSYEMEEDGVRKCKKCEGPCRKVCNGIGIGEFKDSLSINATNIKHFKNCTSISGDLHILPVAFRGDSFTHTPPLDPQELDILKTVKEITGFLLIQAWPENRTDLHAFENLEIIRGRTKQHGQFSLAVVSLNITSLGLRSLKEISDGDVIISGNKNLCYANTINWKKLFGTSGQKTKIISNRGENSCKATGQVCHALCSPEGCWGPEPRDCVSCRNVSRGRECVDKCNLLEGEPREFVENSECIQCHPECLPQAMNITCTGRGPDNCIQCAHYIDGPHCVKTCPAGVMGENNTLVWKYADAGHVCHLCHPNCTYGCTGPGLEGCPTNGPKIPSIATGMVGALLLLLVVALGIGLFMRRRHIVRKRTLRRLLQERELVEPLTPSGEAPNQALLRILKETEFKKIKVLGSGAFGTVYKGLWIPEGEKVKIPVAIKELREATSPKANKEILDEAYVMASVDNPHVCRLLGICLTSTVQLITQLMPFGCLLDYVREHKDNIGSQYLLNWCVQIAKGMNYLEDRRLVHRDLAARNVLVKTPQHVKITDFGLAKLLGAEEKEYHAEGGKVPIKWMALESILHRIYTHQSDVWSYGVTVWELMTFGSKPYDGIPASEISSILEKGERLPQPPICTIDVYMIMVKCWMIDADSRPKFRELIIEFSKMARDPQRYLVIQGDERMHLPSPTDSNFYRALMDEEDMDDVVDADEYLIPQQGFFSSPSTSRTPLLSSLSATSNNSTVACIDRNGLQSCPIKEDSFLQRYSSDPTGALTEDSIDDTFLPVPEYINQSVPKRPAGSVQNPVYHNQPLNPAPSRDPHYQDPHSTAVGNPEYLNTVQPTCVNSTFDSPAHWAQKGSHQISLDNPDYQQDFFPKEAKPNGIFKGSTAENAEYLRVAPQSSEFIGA

The IC50 is the point on the concentration scale where inhibition reaches its midpoint. As to `CC(=O)NC1CCN(c2cc3c(N[C@H](C)c4cccc(Br)c4)nc(C)nc3cn2)C1` (mixture of isomers) [Example 42, N-[1-(4-{[(1R)-1-(3-bromophenyl)ethyl]amino}-2-methylpyrido[3,4-d]pyrimidin-6-yl)pyrrolidin-3-yl]acetamide], the IC50 in test [1] (values expressed as IC50) is 187 nM; in test [2] it was > 20 µM.
For `Cc1nc(NC(C)c2ccc(-c3ccccc3CN(C)C)s2)c2cc(C3CCN(C)C3=O)ncc2n1` (mixture of isomers) [Example 69, 3-(4-{[1-(5-{2-[(dimethylamino)methyl]phenyl}thiophen-2-yl)ethyl]amino}-2-methylpyrido[3,4-d]pyrimidin-6-yl)-1-methylpyrrolidin-2-one], in that order: 62.6 nM and > 20 µM.
Turning to `Cc1nc(NC(C)c2ccc(-c3ccccc3CN(C)C)s2)c2cc(C3(O)CCN(C)C3=O)ncc2n1` (mixture of isomers) [Example 85, 3-(4-{[1-(5-{2-[(dimethylamino)methyl]phenyl}thiophen-2-yl)ethyl]amino}-2-methylpyrido[3,4-d]pyrimidin-6-yl)-3-hydroxy-1-methylpyrrolidin-2-one], the IC50 in test [1] was 83.4 nM; in test [2], > 20 µM.
Turning to `CCOc1cc2c(NC(C)c3cccc4sccc34)nc(C)nc2cn1` (stereo not shown) [Example 3, N-[1-(1-benzothiophen-4-yl)ethyl]-6-ethoxy-2-methylpyrido[3,4-d]pyrimidin-4-amine], the IC50 in test [1] (values expressed as IC50) was 215 nM; in test [2], > 20 µM.
Turning to `COc1cc2c(NC(C)c3cccc4sccc34)nc(C)nc2cn1` (stereo not shown) [Example 4, N-[1-(1-benzothiophen-4-yl)ethyl]-6-methoxy-2-methylpyrido[3,4-d]pyrimidin-4-amine], the IC50 in test [1] (values expressed as IC50) is 355 nM; in test [2], > 20 µM.
Take `CCOc1cc2c(N[C@H](C)c3cccc(Br)c3)nc(C)nc2cn1` [Example 5, N-[(1R)-1-(3-bromophenyl)ethyl]-6-ethoxy-2-methylpyrido[3,4-d]pyrimidin-4-amine]: the half-maximal inhibitory concentration (IC50) was 491 nM in test [1] (values expressed as IC50) and > 20 µM in test [2].
For `CCOc1cc2c(N[C@H](C)c3cccc(Cl)c3)nc(C)nc2cn1` [Example 6], in that order: 393 nM and > 20 µM.
As to `CCOc1cc2c(N[C@H](C)c3cccc(S(C)(=O)=O)c3)nc(C)nc2cn1` [Example 7, 6-ethoxy-2-methyl-N-{(1R)-1-[3-(methylsulfonyl)phenyl]ethyl}pyrido[3,4-d]pyrimidin-4-amine], the IC50 in test [1] (values expressed as IC50) was 633 nM; in test [2] it was > 20 µM.
For `COc1cc2c(N[C@H](C)c3ccc(F)c(Cl)c3)nc(C)nc2cn1` [Example 8], in that order: 5490 nM and > 20 µM.
One may read the inhibition as the drop in the measured response relative to a control, in per cent. On to `Cc1nc(N[C@H](C)c2ccc(F)cc2)c2cc(F)ncc2n1` [Example 9], for which the inhibition at 20 µM in test [1] was 54%. In addition, the IC50 in test [2] is > 20 µM.
For `Cc1nc(N[C@H](C)c2ccc(F)cc2)c2cc(OCC3CCOCC3)ncc2n1` [Example 11, N-[1R)-1-(4-fluorophenypethyl]-2-methyl-6-(tetrahydro-2H-pyran-4-ylmethoxy)-pyrido[3,4-d]pyrimidin-4-amine], the IC50 in test [1] (values expressed as IC50) is 1790 nM; in test [2], > 20 µM.
On to `COc1cc2c(N[C@H](C)c3ccc(F)c(C4CC4)c3)nc(C)nc2cn1` [Example 12], for which the IC50 in test [1] (values expressed as IC50) is 5840 nM; in test [2], > 20 µM.
For `CCOc1cc2c(N[C@H](C)c3ccc(Br)cc3)nc(C)nc2cn1` [Example 13, N-[(1R)-1-(4-bromophenyl)ethyl]-6-ethoxy-2-methylpyrido[3,4-d]pyrimidin-4-amine], the results for the half-inhibitory concentration (IC50) in test [1] (values expressed as IC50) and in test [2] were 1220 nM and > 20 µM, respectively.
Consider `COc1cc2c(NC(C)c3cccc4c3cnn4C)nc(C)nc2cn1` (stereo not shown) [Example 14, 6-methoxy-2-methyl-N-[1-(1-methyl-1H-indazol-4-yl)ethyl]pyrido[3,4-d]pyrimidin-4-amine], for which the figures for the half-inhibitory concentration (IC50) in test [1] (values expressed as IC50) and in test [2] were 1650 nM and > 20 µM, respectively.
For `Cc1nc(N[C@H](C)c2ccc(F)cc2)c2cc(OC(C)C)ncc2n1` [Example 15] the same measures were 1480 nM and > 20 µM.
For `COc1cc2c(NC(C)c3cccc4nn(C)cc34)nc(C)nc2cn1` (stereo not shown) [Example 17, 6-methoxy-2-methyl-N-[1-(2-methyl-2H-indazol-4-yl)ethyl]pyrido[3,4-d]pyrimidin-4-amine], in that order: 9190 nM and > 20 µM.
For `CCOc1cc2c(N[C@H](C)c3ccc(C#N)cc3)nc(C)nc2cn1` [Example 18, 4-{(1R)-1-[(6-ethoxy-2-methylpyrido[3,4-d]pyrimidin-4-yl)amino]ethyl}benzonitrile], in that order: 1110 nM and > 20 µM.
Consider `Cc1nc(N[C@H](C)c2cccc(Br)c2)c2nc(OCc3ccccc3)ncc2n1` [Example 20, 6-(benzyloxy)-N-[(1R)-1-(3-bromophenyl)ethyl]-2-methylpyrimido[5,4-d]pyrimidin-4-amine], for which the inhibition at 20 µM in test [1] turned out to be 30%. Moreover, the IC50 in test [2] was > 20 µM.
Turning to `Cc1nc(N[C@H](C)c2cccc(Br)c2)c2nc(N(C)C)ncc2n1` [Example 21], the inhibition at 20 µM in test [1] was found to be 26.3%. Also, the 50% inhibitory concentration (IC50) in test [2] was > 20 µM.
For `Cc1nc(N[C@H](C)c2cccc(Br)c2)c2nc(N3CCOCC3)ncc2n1` [Example 22, N-[(1R)-1-(3-bromophenyl)ethyl]-2-methyl-6-(morpholin-4-yl)pyrimido[5,4-d]pyrimidin-4-amine], the results for the IC50 in test [1] (values expressed as IC50) and in test [2] were 1620 nM and > 20 µM, respectively.
